# Tests used:
# [1] = test system: PI3K/AKT/mTOR signalling pathway; experiment: Western blotting, PI3K/AKT/mTOR signalling in S18 and C666-1; type: cell-based
# Source text: (§1) We used standard approaches and methods for Western blotting (WB) analyses. In brief, nasopharyngeal carcinoma cells were lysed on ice in Pierce RIPA buffer (Thermo Scientific) containing a Halt protease inhibitor cocktail (Sigma-Aldrich) and phosphatase inhibitors (Keygen Biotech). We measured protein concentration using a Beyotime protein assay protocol following the manufacturer’s instructions. Proteins were separated by using sodium dodecyl sulfate polyacrylamide gel electrophoresis and were then transferred to polyvinylidene difluoride membranes (0.45 µm; Millipore). […] The total S6, AKT, and mTOR antibodies were used on the same blots as the respective phosphorylated proteins after stripping (stripping buffer, CWBIO, China). All primary antibodies were diluted in Tris-buffered saline containing Tween 20 and 5% bovine serum albumin (BSA), and a peroxidase conjugate (Bioworld) was used as the secondary antibody. Anti-β-actin (20536-I, Proteintech) was used as a loading control. Immuno-reactive bands were visualized using an enhanced chemo-luminescence kit (Thermo Fisher Scientific), and images were captured using a ChemiDoc™ XRS molecular imager (Bio-Rad). Densitometry of band intensity was performed using ImageJ software.
# HONE1 and CNE1 = experiment: Viability assay, response to BYL719; type: cell-based; conditions: 1 µM BYL719, 72 h
# Description: (§2) The effects of casticin on the growth of the 12 cell lines were determined using the Cell Counting Kit-8 (CCK-8) assay (Dojindo, Japan). Briefly, cells were plated in 96-well plates at 4 × 10^3 cells/well in 100 μL and were treated with a gradient of casticin concentrations (0, 1, 2, 4, 8 µM). After incubation for 24, 48, or 72 h, 10 μL of the CCK-8 reagent was added into each well, and the plate was incubated for an additional 1 or 2 h. Next, a microplate reader (Bio-Rad, model 550) was used to detect absorbance at 490 nm in each well. We repeated the experiments three times. Cell viability was calculated using the following formula: […].
# To identify BYL719-insensitive NPC cell lines, the response of 12 NPC cell lines to BYL719 was screened by viability assay (Fig. 5a). […] Only two NPC cell lines, HONE1 and CNE1, were sensitive to 1 µM BYL719 after 72 h (Fig. 5a). Both sensitive cell lines increased S-phase arrest and apoptosis rates (as measured by AV staining) compared with the those in the BYL719-insensitive cell lines (Fig. 5b, c). We studied PI3K signalling in three resistant (S18, C666-1 and HONE-EBV+) (Fig. 5d) and two sensitive cell lines (HONE1 and CNE1) after treatment with a gradient of BYL719 concentrations (Fig. 5e). […]
# p110α = test system: p110α; parameters: method as in PMID 23903756; conditions: 1 μM; cited from earlier work
# [2] = test system: phosphorylation of S6, AKT and mTOR; experiment: Western blotting, PI3K signalling after BYL719 in sensitive and resistant cell lines; type: cell-based; conditions: sensitive cells (HONE1, CNE1) compared to resistant cells (S18, C666-1, HONE-EBV+)
# Source text: as §1, with “All primary antibodies were diluted in Tris-buffered saline containing Tween 20 and 5% bovine serum albumin (BSA), and a peroxidase conjugate (Bioworld) was used as the secondary antibody. Anti-β-actin (20536-I, Proteintech) was used as a loading control.” left out, “Densitometry of band intensity was performed using ImageJ software.” left out
# To identify BYL719-insensitive NPC cell lines, the response of 12 NPC cell lines to BYL719 was screened by viability assay (Fig. 5a). […] Both sensitive cell lines increased S-phase arrest and apoptosis rates (as measured by AV staining) compared with the those in the BYL719-insensitive cell lines (Fig. 5b, c). […]
# [3] = molecular target: T1, PIK3CA E542K/PIK3R1 (p110 alpha/p85 alpha) (Homo sapiens, UniProt P42336, E542K); experiment: SelectScreen biochemical kinase activity assay
# T1 construct: purchased Invitrogen (SelectScreen service)
# T1 sequence (P42336 whole entry E542K): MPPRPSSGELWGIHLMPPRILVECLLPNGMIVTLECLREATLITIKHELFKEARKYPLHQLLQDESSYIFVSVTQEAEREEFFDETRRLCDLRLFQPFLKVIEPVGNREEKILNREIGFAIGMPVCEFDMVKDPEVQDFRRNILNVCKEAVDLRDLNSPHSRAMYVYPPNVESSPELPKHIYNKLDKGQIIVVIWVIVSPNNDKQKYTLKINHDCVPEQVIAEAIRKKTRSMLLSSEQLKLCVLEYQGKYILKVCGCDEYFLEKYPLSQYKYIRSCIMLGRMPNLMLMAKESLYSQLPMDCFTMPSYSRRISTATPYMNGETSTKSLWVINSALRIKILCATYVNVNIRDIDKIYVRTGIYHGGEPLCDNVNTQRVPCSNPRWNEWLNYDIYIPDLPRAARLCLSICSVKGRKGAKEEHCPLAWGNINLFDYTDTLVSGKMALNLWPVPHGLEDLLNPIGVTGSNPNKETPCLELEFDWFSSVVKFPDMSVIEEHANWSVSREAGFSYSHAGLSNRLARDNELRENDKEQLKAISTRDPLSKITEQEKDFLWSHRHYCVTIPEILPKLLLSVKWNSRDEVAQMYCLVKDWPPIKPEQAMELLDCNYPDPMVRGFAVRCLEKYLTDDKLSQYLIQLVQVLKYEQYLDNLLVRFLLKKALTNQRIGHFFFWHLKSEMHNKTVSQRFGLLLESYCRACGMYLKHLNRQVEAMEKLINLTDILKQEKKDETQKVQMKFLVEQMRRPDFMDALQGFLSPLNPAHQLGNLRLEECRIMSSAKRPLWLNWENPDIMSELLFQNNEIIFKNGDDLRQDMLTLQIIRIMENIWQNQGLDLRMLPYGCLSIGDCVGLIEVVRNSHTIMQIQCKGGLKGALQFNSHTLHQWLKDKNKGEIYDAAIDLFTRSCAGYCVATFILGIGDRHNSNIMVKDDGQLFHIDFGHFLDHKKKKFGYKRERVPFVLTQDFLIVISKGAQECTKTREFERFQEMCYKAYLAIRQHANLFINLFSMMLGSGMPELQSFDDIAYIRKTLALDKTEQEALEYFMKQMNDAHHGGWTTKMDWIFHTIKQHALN
# T1 sequence (P27986 whole entry partner): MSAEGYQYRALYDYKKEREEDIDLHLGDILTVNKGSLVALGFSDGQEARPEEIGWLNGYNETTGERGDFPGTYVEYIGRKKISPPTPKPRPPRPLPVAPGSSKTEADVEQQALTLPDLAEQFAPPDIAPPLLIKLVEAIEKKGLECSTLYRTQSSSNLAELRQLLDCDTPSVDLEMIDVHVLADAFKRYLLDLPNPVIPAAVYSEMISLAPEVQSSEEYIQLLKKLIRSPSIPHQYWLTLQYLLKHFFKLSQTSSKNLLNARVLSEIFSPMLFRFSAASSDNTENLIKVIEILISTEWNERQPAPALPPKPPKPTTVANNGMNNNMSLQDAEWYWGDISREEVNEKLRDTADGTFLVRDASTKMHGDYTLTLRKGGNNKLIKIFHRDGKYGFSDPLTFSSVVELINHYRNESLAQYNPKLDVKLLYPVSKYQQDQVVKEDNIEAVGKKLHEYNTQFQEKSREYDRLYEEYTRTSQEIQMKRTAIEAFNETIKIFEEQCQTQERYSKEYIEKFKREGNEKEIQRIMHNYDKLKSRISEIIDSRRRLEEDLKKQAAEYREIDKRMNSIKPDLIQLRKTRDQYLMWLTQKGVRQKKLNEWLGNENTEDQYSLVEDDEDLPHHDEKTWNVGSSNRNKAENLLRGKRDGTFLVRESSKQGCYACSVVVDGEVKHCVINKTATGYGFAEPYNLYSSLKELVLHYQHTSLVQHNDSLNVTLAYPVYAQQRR
# Description: (§3) Selectivity profiling of casticin against a selected panel of 468 kinases distributed throughout the kinome was performed by DiscoverRx (http://www.discoverx.com/home) using the KINOMEscan screening platform at a test concentration of 10 μM. Since KINOMEscan is a binding assay and may not reflect the inhibitory activity of a compound, the binding constant (Kd) of casticin was calculated from a standard dose–response curve using the Hill equation: Response = Background + (Signal − Background)/[1 + (Kd^Hill Slope/Dose^Hill Slope)]. We then tested casticin in the SelectScreen assay (Invitrogen, USA) to calculate the IC50 of casticin that directly targeted the active site of ATP in PI3K kinase.
# [4] = molecular target: T2, PIK3CA ( p110 alpha/p85 alpha ) (Homo sapiens, UniProt P42336); experiment: SelectScreen biochemical kinase activity assay
# T2 construct: purchased Invitrogen (SelectScreen service)
# T2 sequence (P42336 whole entry): as the sequence (P42336 whole entry E542K) above, with K542E counted along it
# T2 sequence (P27986 whole entry partner): as the sequence (P27986 whole entry partner) above
# Description: as §3
# [5] = molecular target: T3, PIK3CA/PIK3R3 (p110a/p55 gamma) (Homo sapiens, UniProt P42336); experiment: SelectScreen biochemical kinase activity assay
# T3 construct: purchased Invitrogen (SelectScreen service)
# T3 sequence (P42336 whole entry): as the sequence (P42336 whole entry E542K) above, with K542E counted along it
# Description: as §3
# [6] = molecular target: T4, PIK3CA E545K/PIK3R1 (p110 alpha E545K/p85 alpha) (Homo sapiens, UniProt P42336, E545K); experiment: SelectScreen biochemical kinase activity assay
# T4 construct: purchased Invitrogen (SelectScreen service)
# T4 sequence (P42336 whole entry E545K): as the sequence (P42336 whole entry E542K) above, with K542E, E545K counted along it
# T4 sequence (P27986 whole entry partner): as the sequence (P27986 whole entry partner) above
# Description: as §3
# panel of 468 kinases = experiment: KINOMEscan selectivity profiling; type: binding, human; conditions: 10 μM
# Description: as §3
# S18 cells [7] = experiment: Colony formation assay; type: cell-based
# Description: S18 and C666-1 cells were incubated in 6-well plates with either 0, 1, 2, and 4 µM casticin for 12 h with 1 µM casticin for 0, 6, 12, and 24 h. There after, 500 cells were seeded in each well of a 6-well plate and cultured without casticin for 8–10 days. Subsequently, the cells were fixed with methanol and stained with haematoxylin. After washing and drying, colonies with more than 50 cells were counted under a microscope (Leica, Wetzlar, Germany).
# C666-1 cells [8] = experiment: Cell cycle analysis by flow cytometry, C666-1; type: cell-based; conditions: 8 µM casticin for 24 h
# Description: (§4) S18 and C666-1 cells were treated with 0, 2, 4, and 8 µM casticin for 24 h. The cells were then collected, washed with phosphate-buffered saline (PBS), and fixed with 75% ethanol overnight. Subsequently, the cells were centrifuged (1500 rpm, 5 min) and incubated with 10 mg/mL RNase and 1 mg/mL propidium iodide (PI) at 37 °C for 30 min in the dark. Finally, we analysed cell cycle distribution by using flow cytometry (FACSCalibur; BD Biosciences, Bedford, MA, USA).
# Nanog, sox2, and Oct4 = experiment: Western blotting, stem cell markers; type: cell-based; conditions: C666-1; 0, 4, 8, 16 µM; 24 h; dose-dependent
# Source text: as §1
# S18 cells [9] = experiment: S18 xenograft mouse model; type: in vivo, nude mice
# Description: (§5) Generation and characterization of the xenograft mouse model were conducted in accordance with the guidelines of the Ministry of Science and Technology of China and were approved by the Animal Ethics Committee of Southern Medical University. All efforts were made to minimize animal suffering during the experiments. Five-week-old nude mice were obtained from the Guangdong Experimental Animal Ccenter. To assess the tumour growth, 5 × 10^6 S18 cells and 1 × 10^7 C666-1 cells were injected subcutaneously into the left or right side of the back of each mouse (three mice per group). When tumours reached approximately 100 mm^3, the mice were randomized to the control and casticin treatment groups. Casticin was diluted in 10% DMSO in normal saline (NS) and injected intraperitoneally at 40 mg/kg daily, while the control group received only NS vehicle. Tumour sizes were measured with a caliper and recorded every 3 days. Tumour volume was calculated as follows: tumour volume = (length × width^2) × 0.5. Body weight was recorded every 2–3 days during the treatment, and the tumour weight was measured at the end of the experiment.
# S18 cells [10] = experiment: Cell cycle analysis by flow cytometry, S18; type: cell-based; conditions: 8 µM casticin for 24 h
# Description: as §4
# S18 cells [11] = experiment: Transwell migration assay; type: cell-based; conditions: concentration-dependent
# [12] = test system: normal nasopharyngeal mucosal epithelial cell line NP69; experiment: CCK-8 cell viability assay, NP69; type: cell-based; conditions: NP69 cells
# Description: as §2
# C666-1 cells [13] = experiment: C666-1 xenograft mouse model; type: in vivo, nude mice; conditions: 40 mg/kg daily i.p.
# Description: as §5
# BCL-2, BAX, p21 = experiment: Western blotting, cell cycle and apoptosis related proteins; type: cell-based
# Source text: as §1
# S18 and C666-1 cells = experiment: Wound-healing assay; type: cell-based; conditions: vs cells not treated
# Description: We seeded S18 and C666-1 cells in 6-well plates at 80% to 90% confluence. After a 24-h incubation period, cells were wounded by using a 0.2-mL pipette tip to scratch the subconfluent cell monolayer. Then, we removed the detached cells by washing with PBS just before casticin 16 µM was added to each well of the plate. Cells were maintained in serum-free medium and allowed to migrate for 24 h. An inverted microscope was used to capture cell migration images after 24 h. The speed of migration was determined by dividing the length of the gap and the wound areas in the resultant images.
# [14] = test system: S18, CNE2, C666-1 tumour spheres; experiment: 3D tumour sphere formation assay; type: cell-based; conditions: 20 µM casticin for 72 h; vs untreated spheres
# Description: S18, CNE2, and C666-1 cells (2 × 10^4 each) were cellected, counted and seeded into a cell culture flask with a novel 3D tumour sphere culture system. The 3D tumour sphere culture system with NPC cells was cultured at 37 °C in a humid atmosphere with 5% CO2, the diameters of tumour spheroids were measured when the tumour sphere diameter was ≥ […] [15] and then incubated with 20 µM casticin for 72 h, the original medium was discarded, the cells were cultured for approximately 1 week, and the tumour spheres that were ≥ 100 µm in diameter were counted under a bright field microscope.
# [15] = test system: PI3K family, including wild-type and mutant kinases; experiment: KINOMEscan binding to PI3K family; parameters: species or system human; conditions: 10 μM
# Description: as §3
# NPC cell lines = experiment: CCK-8 cell viability assay, NPC cell lines; type: cell-based
# Description: as §2
# S18 cells [16] = experiment: Annexin V/PI staining assay; type: cell-based; conditions: 48 h
# Description: For the apoptosis test, S18 and C666-1 cells were treated with casticin at concentrations of 0, 1, 2, and 4 µM and of 0, 2, 4, and 8 µM for 48 h. Next, cells were collected and washed once with PBS. After centrifugation (1500 rpm, 5 min), cells were resuspended in 1× annexin V (AV) binding buffer and incubated with 5 µL of AV and PI at 37 °C for 30 min. Cell apoptosis was evaluated by using flow cytometry (FACSCalibur).
# [17] = read-out: Inhibited kinase activity(%) at 1μM of Casticin
# [18] = 40 mg/kg daily i.p., vs NS group
smiles,measurement,setting,value
Cc1nc(NC(=O)N2CCC[C@H]2C(N)=O)sc1-c1ccnc(C(C)(C)C(F)(F)F)c1 [BYL719],phosphorylation of ATK (Ser473 and Thr308) or mTORC1,"[1]; BYL719 1 µM alone, 12 h",did not reduce
same,sensitivity class by viability (IC50 cut-off 1 μM),HONE1 and CNE1,sensitive
same,block of p110 subunits,p110α,blocked p110α without affecting the other p110 subunits
same,"phosphorylation of S6, AKT and mTOR",[2],significantly reduced
"COc1ccc(-c2oc3cc(OC)c(OC)c(O)c3c(=O)c2OC)cc1O [casticin, 3′,5-dihydroxy-3,4′,6,7-tetramethoxyflavone]","phosphorylation of AKT (T308, S473) and mTOR (Ser2481, Ser2448)","[1]; 24 h, increasing casticin concentrations, dose-dependent",significant reduction
same,IC50,[3],306 nM
same,inhibition at 1 µM,[3]; [17],57%
same,IC50,[4]; PI3K (p110α/p85α),616 nM
same,inhibition at 1 µM,[4]; [17],56%
same,IC50,[5],574 nM
same,inhibition at 1 µM,[5]; [17],46%
same,IC50,[6],544 nM
same,inhibition at 1 µM,[6]; [17],54%
same,S score (1),panel of 468 kinases,0.01
same,binding to other kinases,panel of 468 kinases; KINOMEscan,did not demonstrate strong binding
same,clonogenic ability,"S18 cells [7]; 1 µM casticin, vs control group",diminished as early as 6 h
same,clonogenic activity,"S18 cells [7]; S18 cells, 0, 1, 2, 4 µM for 12 h",significant reduction
same,percentage of cells in the G2/M phase,C666-1 cells [8],62.54 ± 4.91%
same,"expression of tumour stemness markers Nanog, sox2, Oct4","Nanog, sox2, and Oct4",reduced expression
same,damage to the liver or kidney (haematoxylin and eosin histopathology),S18 cells [9]; 40 mg/kg daily i.p.,without any obvious subsequent damage to the liver or kidney
same,tumour size,"S18 cells [9]; 40 mg/kg daily i.p. for 12 days, 18 days after implantation",smaller than those in the control group
same,tumour growth rate (tumour volume),S18 cells [9]; [18],lower than NS group
same,tumour weight,S18 cells [9]; [18],lighter than NS group
same,ratios of liver and kidney weight to body weight,"S18 cells [9]; S18 model, 40 mg/kg daily i.p.",not statistically significant between groups
same,percentage of cells in the G2/M phase,S18 cells [10],62.90 ± 1.97%
same,number of migrating cells,S18 cells [11],significantly reduced
same,effect on cell growth compared to BYL719,[12],less effective
same,cell viability,"[12]; gradient of concentrations, 24, 48, 72 h",resistant
same,tumour growth and liver/kidney histology in C666-1 in vivo model,C666-1 cells [13],findings similar to those with the S18 model
same,p21 expression,"BCL-2, BAX, p21; S18 and C666-1, 24 h",increased
same,BCL-2/BAX ratio,"BCL-2, BAX, p21; casticin-treated S18 and C666-1 cells",significantly decreased in a dose-dependent manner
same,gap-closing speeds,S18 and C666-1 cells,significantly decreased
same,tumour sphere growth,[14],significant reduction in tumour growth
same,percent control number,[15],less than 1
same,IC50 on viability compared with BYL719,"NPC cell lines; 12 NPC cell lines, 24 h",lower than that of BYL719
same,cell viability,"NPC cell lines; eleven NPC cell lines, gradient of concentrations, 24, 48, 72 h, concentration-dependent",decreased
same,early and late apoptosis,S18 cells [16]; 1 μM,significantly increased
same,apoptotic frequency,S18 cells [16]; 4 μM,approximately 75%

# From article PMC6925493, “Casticin inhibits nasopharyngeal carcinoma growth by targeting phosphoinositide 3-kinase” (Cancer Cell International, 2019)
